Experimental data: patent publication US8546401B2, “5,6-disubstituted oxindole-derivatives and use thereof for treating vasopressin-dependent diseases” (AbbVie Deutschland GmbH & Co. KG, priority 2007, dated 2013)
pKi: −log10 of the molar value.

Columns and labels:
[1] = target: T1, human vasopressin V1b receptor (Homo sapiens, UniProt P47901); assay: Vasopressin V1b receptor binding assay; conditions: CHO-K1 membranes, 3H-AVP displacement
T1 construct: expressed in transfected cells; host or cells: CHO-K1 (cell line hV1b_3H2_CHO), membrane preparation
T1 sequence (P47901 1-424): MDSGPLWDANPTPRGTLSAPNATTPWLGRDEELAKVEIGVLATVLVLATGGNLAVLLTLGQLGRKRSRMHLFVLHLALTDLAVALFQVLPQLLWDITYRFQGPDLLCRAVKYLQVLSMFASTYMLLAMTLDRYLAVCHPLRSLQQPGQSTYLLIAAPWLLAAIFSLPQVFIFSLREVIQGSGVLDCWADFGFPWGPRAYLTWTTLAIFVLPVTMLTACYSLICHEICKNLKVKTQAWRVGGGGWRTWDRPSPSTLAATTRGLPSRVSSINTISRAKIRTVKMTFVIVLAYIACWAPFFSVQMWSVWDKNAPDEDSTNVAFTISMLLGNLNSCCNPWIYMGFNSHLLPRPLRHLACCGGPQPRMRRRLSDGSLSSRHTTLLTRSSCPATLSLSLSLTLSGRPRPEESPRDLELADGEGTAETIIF
In short: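 Membranes (50 μg/ml protein) from CHO-K1 cells stably expressing human V1b were incubated with 1.5 nM ^3H-AVP in 50 mM Tris, 10 mM MgCl2, 0.1% BSA, pH 7.4, for 60 min at room temperature, 2% DMSO final. Bound ligand measured after filtration; Ki derived by nonlinear regression using Kd 0.4 nM.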

[2] = target: T2, human vasopressin V1a receptor (Homo sapiens, UniProt P37288); assay: Vasopressin V1a receptor binding assay; conditions: selectivity quotient, human receptors
T2 construct: expressed in transfected cells; host or cells: CHO-K1 (cell line hV1a_5_CHO), membrane preparation
In short: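 Membranes from CHO-K1 cells stably expressing the receptor (hV1a_5_CHO; 20 μg/ml protein) were incubated 60 min at room temperature with 0.04 nM ^125I-AVP and increasing test compound in 50 mM Tris, 10 mM MgCl2, 0.1% BSA, pH 7.4. Nonspecific binding was defined with 1 μM AVP and read by filtration and scintillation. Ki came from nonlinear regression using Kd 1.33 nM.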

[3] = target: T3, human oxytocin receptors (Homo sapiens, UniProt P30559); assay: Oxytocin receptor binding assay; conditions: selectivity quotient
T3 construct: expressed in transfected cells; host or cells: HEK-293, transient expression; lysed and homogenized cells
T3 sequence (P30559 1-389): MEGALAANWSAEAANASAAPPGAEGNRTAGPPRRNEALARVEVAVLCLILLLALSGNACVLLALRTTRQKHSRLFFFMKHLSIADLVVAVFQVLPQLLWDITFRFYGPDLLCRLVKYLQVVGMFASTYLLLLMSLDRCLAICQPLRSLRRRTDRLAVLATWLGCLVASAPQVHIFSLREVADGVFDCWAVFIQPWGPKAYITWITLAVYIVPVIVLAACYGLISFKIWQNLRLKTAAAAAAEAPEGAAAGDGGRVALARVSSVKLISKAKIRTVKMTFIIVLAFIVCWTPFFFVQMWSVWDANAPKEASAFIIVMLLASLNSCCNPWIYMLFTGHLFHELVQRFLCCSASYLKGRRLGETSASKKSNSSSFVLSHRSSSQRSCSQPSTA
In short: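 Membranes from HEK-293 cells transiently expressing human oxytocin receptor, incubated with 3-4 nM ^3H-oxytocin in 50 mM Tris, 10 mM MgCl2, 0.1% BSA, pH 7.4; nonspecific binding with 10^−6 M oxytocin. Filtration and scintillation counting; Ki by nonlinear regression using Kd 7.6 nM.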

T2 sequence (P37288 whole entry): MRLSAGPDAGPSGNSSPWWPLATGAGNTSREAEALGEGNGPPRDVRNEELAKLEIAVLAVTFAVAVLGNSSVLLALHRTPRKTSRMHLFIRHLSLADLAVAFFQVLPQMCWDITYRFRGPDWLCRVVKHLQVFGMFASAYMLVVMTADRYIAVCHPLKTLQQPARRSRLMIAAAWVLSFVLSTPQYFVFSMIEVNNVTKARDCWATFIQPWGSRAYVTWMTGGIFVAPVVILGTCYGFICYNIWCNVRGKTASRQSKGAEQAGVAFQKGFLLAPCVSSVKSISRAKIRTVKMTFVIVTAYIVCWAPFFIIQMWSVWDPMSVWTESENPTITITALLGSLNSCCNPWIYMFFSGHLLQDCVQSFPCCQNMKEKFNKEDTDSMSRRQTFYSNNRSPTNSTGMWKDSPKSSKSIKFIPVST

SMILES | pKi [1] | Ki(h − V1a)/Ki(h − V1b)* [2] | Ki(h − OT)/Ki(h − V1b)* [3]
CCOc1ncccc1C1(NC(=O)N2CCC(N3CCN(C)CC3)CC2)C(=O)N(S(=O)(=O)c2ccc(OC)cc2OC)c2cc(F)c(F)cc21 (stereo not drawn) [Example 35, 4-(4-Methylpiperazin-1-yl)piperidine-1-[1-(2,4-dimethoxyphenylsulfonyl)-3-(2-ethoxy-pyridin-3-yl)-5,6-difluoro-2-oxo-2,3-dihydro-1H-indol-3-yl]carboxamide] | 8.00 to 9.00 | + (10-<25) | + (10-<25)
CCOc1ncccc1C1(OC(=O)N2CCN(C3CCN(C)CC3)CC2)C(=O)N(S(=O)(=O)c2ccc(OC)cc2OC)c2cc(F)c(C#N)cc21 (stereo not drawn) [Example 38, 5-Cyano-1-(2,4-dimethoxybenzenesulfonyl)-3-(2-ethoxypyridin-3-yl)-6-fluoro-2-oxo-2,3-dihydro-1H-indol-3-yl 4-(1-methylpiperidin-4-yl)piperazine-1-carboxylate] | > 9.00 | +++ (>75) | +++ (>75)
CCOc1ncccc1C1(OC(=O)N2CCN(C3CCN(C)CC3)CC2)C(=O)N(S(=O)(=O)c2ccc(OC)cc2)c2cc(F)c(C#N)cc21 (stereo not drawn) [Example 39, 5-Cyano-3-(2-ethoxypyridin-3-yl)-6-fluoro-1-(4-methoxyphenylsulfonyl)-2-oxo-2,3-dihydro-1H-indol-3-yl 4-(1-methylpiperidin-4-yl)piperazine-1-carboxylate] | > 9.00 | ++ (25-75) | +++ (>75)
CCOc1ncccc1C1(OC(=O)N2CCN(C3CCN(C)CC3)CC2)C(=O)N(S(=O)(=O)c2ccccc2)c2cc(F)c(C#N)cc21 (stereo not drawn) [Example 40, 1-Phenylsulfonyl-5-cyano-3-(2-ethoxypyridin-3-yl)-6-fluoro-2-oxo-2,3-dihydro-1H-indol-3-yl 4-(1-methylpiperidin-4-yl)piperazine-1-carboxylate] | 8.00 to 9.00 | + (10-<25) | +++ (>75)
CCOc1ncccc1C1(OC(=O)N2CCN(C3CCN(C)CC3)CC2)C(=O)N(S(=O)(=O)c2ccc(OC)cc2OC)c2cc(F)c(Cl)cc21 (stereo not drawn) [Example 41, 5-Chloro-1-(2,4-dimethoxyphenylsulfonyl)-3-(2-ethoxypyridin-3-yl)-6-fluoro-2-oxo-2,3-dihydro-1H-indol-3-yl 4-(1-methylpiperidin-4-yl)piperazine-1-carboxylate] | > 9.00 | + (10-<25) | + (10-<25)
CCOc1ncccc1C1(OC(=O)N2CCN(C3CCN(C)CC3)CC2)C(=O)N(S(=O)(=O)c2ccc(OC)cc2)c2cc(F)c(Cl)cc21 (stereo not drawn) [Example 42, 5-Chloro-3-(2-ethoxypyridin-3-yl)-6-fluoro-1-(4-methoxyphenylsulfonyl)-2-oxo-2,3-dihydro-1H-indol-3-yl 4-(1-methylpiperidin-4-yl)piperazine-1-carboxylate] | > 9.00 | + (10-<25) | + (10-<25)
CCOc1ncccc1C1(OC(=O)N2CCN(C3CCN(C)CC3)CC2)C(=O)N(S(=O)(=O)c2ccccc2OC)c2cc(F)c(Cl)cc21 (stereo not drawn) [Example 43, 5-Chloro-3-(2-ethoxypyridin-3-yl)-6-fluoro-1-(2-methoxyphenylsulfonyl)-2-oxo-2,3-dihydro-1H-indol-3-yl 4-(1-methylpiperidin-4-yl)piperazine-1-carboxylate] | > 9.00 | ++ (25-75) | +++ (>75)
CCOc1ncccc1C1(OC(=O)N2CCN(C3CCN(C)CC3)CC2)C(=O)N(S(=O)(=O)c2ccccc2)c2cc(F)c(Cl)cc21 (stereo not drawn) [Example 45, 1-Phenylsulfonyl-5-chloro-3-(2-ethoxypyridin-3-yl)-6-fluoro-2-oxo-2,3-dihydro-1H-indol-3-yl 4-(1-methylpiperidin-4-yl)piperazine-1-carboxylate] | 8.00 to 9.00 | + (10-<25) | +++ (>75)
CCOc1ncccc1C1(OC(=O)N2CCN(C3CCN(C)CC3)CC2)C(=O)N(S(=O)(=O)c2ccc(OC)cc2OC)c2cc(Cl)c(F)cc21 (stereo not drawn) [Example 46, 6-Chloro-1-(2,4-dimethoxyphenylsulfonyl)-3-(2-ethoxypyridin-3-yl)-5-fluoro-2-oxo-2,3-dihydro-1H-indol-3-yl 4-(1-methylpiperidin-4-yl)piperazine-1-carboxylate] | 8.00 to 9.00 | ++ (25-75) | + (10-<25)
CCOc1ncccc1C1(OC(=O)N2CCN(C3CCN(C)CC3)CC2)C(=O)N(S(=O)(=O)c2ccccc2OC)c2cc(Cl)c(F)cc21 (stereo not drawn) [Example 50, 6-Chloro-3-(2-ethoxypyridin-3-yl)-5-fluoro-1-(2-methoxyphenylsulfonyl)-2-oxo-2,3-dihydro-1H-indol-3-yl 4-(1-methylpiperidin-4-yl)piperazine-1-carboxylate] | 7.00 to 8.00 | + (10-<25) | ++ (25-75)
CCOc1ncccc1C1(OC(=O)N2CCN(C3CCN(C)CC3)CC2)C(=O)N(S(=O)(=O)c2ccc(OC)cc2OC)c2cc(F)c(F)cc21 (stereo not drawn) [Example 51, 1-(2,4-dimethoxyphenylsulfonyl)-3-(2-ethoxypyridin-3-yl)-5,6-difluoro-2-oxo-2,3-dihydro-1H-indol-3-yl 4-(1-methylpiperidin-4-yl)piperazine-1-carboxylate] | 8.00 to 9.00 | +++ (>75) | ++ (25-75)
CCOc1ncccc1C1(OC(=O)N2CCN(C3CCN(C)CC3)CC2)C(=O)N(S(=O)(=O)c2ccc(OC)cc2)c2cc(F)c(F)cc21 (stereo not drawn) [Example 52, 3-(2-Ethoxypyridin-3-yl)-5,6-difluoro-1-(4-methoxyphenylsulfonyl)-2-oxo-2,3-dihydro-1H-indol-3-yl 4-(1-methylpiperidin-4-yl)piperazine-1-carboxylate] | 8.00 to 9.00 | ++ (25-75) | + (10-<25)
CCOc1ncccc1C1(OC(=O)N2CCN(C3CCN(C)CC3)CC2)C(=O)N(S(=O)(=O)c2ccccc2OC)c2cc(F)c(F)cc21 (stereo not drawn) [Example 53, 3-(2-Ethoxypyridin-3-yl)-5,6-difluoro-1-(2-methoxyphenylsulfonyl)-2-oxo-2,3-dihydro-1H-indol-3-yl 4-(1-methylpiperidin-4-yl)piperazine-1-carboxylate] | 8.00 to 9.00 | ++ (25-75) | ++ (25-75)
